Results taken from patent US9273151B2, “Proteinaceous-substance-binding low-molecular-weight compound” (Kaneka Corporation, priority 2011, dated 2016).

system: IgG-Fc (Fc fragment of IgG preparation derived from human plasma); experiment: Biacore 3000 surface plasmon resonance analysis of the affinity of the low-molecular-weight compound for IgG-Fc; settings: IgG-Fc immobilized on sensor chip CM5; compound 25 μM to 100 μM in running buffer pH 7.4, 5% DMSO; 25° C.; 1:1 binding model fit
Description: An Fc fragment was prepared by fragmenting an IgG preparation derived from human plasma as a raw material into a Fab fragment and an Fc fragment using papain and separating the Fc fragment only to be purified. Gammagard, which is an IgG preparation derived from human plasma and which was manufactured by Baxter, was dissolved into a buffer solution for papain digestion which contained 0.1 M AcOH—AcONa, 2 mM EDTA and 1 mM cysteine and of which pH was 5.5, and Papain Agarose from papaya latex (papain-immobilized agarose, manufactured by SIGMA) was added to the solution. The mixture was mixed using a rotator and incubated at 37° C. for about 8 hours. The reaction mixture, which contained both of a Fab fragment and an Fc fragment, was separated from the papain-immobilized agarose. The Fc fragment was separated to be purified from the reaction mixture by affinity chromatography using Protein A column (MabSelect, manufactured by GE Healthcare Company). Hereinafter, the Fc fragment is referred to as “IgG-Fc”. Specifically, the reaction mixture, which contained both of a Fab fragment and an Fc fragment, was diluted with a phosphate buffer (20 mM NaH2PO4—Na2HPO4, 150 mM NaCl, pH 7.4) so that the pH became about 7.4. The diluted mixture was added to a Protein A column which was equilibrated using a phosphate buffer, and the column was washed with a phosphate buffer. Then, an IgG-Fc solution was obtained by using an eluent buffer B (100 mM citric acid, pH 3.0) to elute the IgG-Fc. The above-described protein purification by chromatography was carried out using AKTAprime plus system manufactured by GE Healthcare Company.
The analysis of the affinity between the low-molecular-weight compound and IgG-Fc was carried out using Biacore 3000, which was manufactured by GE Healthcare Company and in which surface plasmon resonance was utilized, under the following protocol. All of the sensor chip and reagents used in the following protocol were manufactured by GE Healthcare Company. The low-molecular-weight compounds (2) to (17) of which binding properties were evaluated were obtained from Namiki Shoji Co., Ltd.
The IgG-Fc obtained in the Example 1 was diluted 50-fold with a buffer for immobilization (10 mM CH3COOH—CH3COONa, pH 4.5), and the IgG-Fc was immobilized on a sensor chip CM5 in accordance with the protocol provided with Biacore 3000. The immobilization of the IgG-Fc on the sensor chip CM5 was carried out by amine coupling method using N-hydroxysuccinimide (NHS) and N-ethyl-N′-(3-dimethylaminopropyl)carbodiimide hydrochroride (EDC), and ethanolamine was used for blocking. In addition, a reference cell was prepared as a negative control by activating other flow cell on a chip by EDC/NHS and then immobilizing ethanolamine.
A ligand of any one of the low-molecular-weight compounds (2) to (17) was flowed on the above sensor chip to detect an interaction. Specifically, each of the low-molecular-weight compound (2) to (17) to be measured was diluted with a running buffer (20 mM NaH2PO4—Na2HPO4, 150 mM NaCl, 0.005% P-20, 5% DMSO, pH 7.4) to prepared three or four kinds of diluted solutions of which concentrations were different each other within the range of 25 μM to 100 μM with respect to each compound. The prepared solutions of the each low-molecular-weight compound were added to the sensor chip at a flow rate of 30 μL/min for 120 seconds. Binding reaction curves were orderly observed at the time of addition (binding phase, for 120 seconds) and after the addition (dissociation phase, for 120 second) at the measurement temperature of 25° C. After the each observation, 40 mM NaOH was added for 15 seconds to regenerate the sensor chip. A binding reaction curve of a sample containing DMSO was corrected using a Biacore correction tool manufactured by GE Healthcare Company with respect to the obtained binding curves (see FIGS. 1 to 4). […]

| SMILES | KA × 10^4 (M^−1), coupling/binding constant KA=Kon/Koff |
| --- | --- |
| Nc1cccc(Oc2cccc(Oc3cccc(N)c3)c2)c1 [(8)] | 0.95 × 10^4 M^−1 |
| O=C(CSc1ncnc2c1cnn2-c1ccccc1)c1ccc(O)c(O)c1 [(3)] | 5.1 × 10^4 M^−1 |
| Nc1ccc(Oc2nc(Oc3ccc(N)cc3)c(F)c(Oc3ccc(N)cc3)c2F)cc1 [(12)] | 0.2 × 10^4 M^−1 |
| CN(c1ccc(O)cc1)c1nc(S(=O)(=O)c2ccccc2)c(Cl)s1 [(14)] | 0.16 × 10^4 M^−1 |
| Cc1cc(C(=O)CSc2nc(N)cc(N)n2)c(C)n1Cc1ccc2c(c1)OCO2 [(17)] | 0.05 × 10^4 M^−1 |
| CC(C)(c1ccc(O)cc1)c1cccc(C(C)(C)c2ccc(O)cc2)c1 [(6)] | 2.9 × 10^4 M^−1 |
| O=c1cc(CSc2ncnc3c2cnn3-c2ccccc2)c2cc(O)c(O)cc2o1 [compound (2)] | 13 × 10^4 M^−1 |
| O=C(CSc1nnc2sc3ccccc3n12)c1ccc(O)c(O)c1 [(4)] | 5.1 × 10^4 M^−1 |
| O=C(CSc1nnc(SCc2cccc3ccccc23)s1)c1ccc(O)c(O)c1 [(5)] | 4.6 × 10^4 M^−1 |
| Cc1ccc(C(=O)C(C)Sc2nnnn2-c2ccc(O)cc2)cc1 (stereo not shown) [(15)] | 0.12 × 10^4 M^−1 |
| Oc1ccc(-c2csc(COc3ccccc3)n2)cc1O [(10)] | 0.4 × 10^4 M^−1 |
| O=C1N/C(=C\c2ccc(O)c(Br)c2)C(=O)N1Cc1ccc(Cl)cc1 [(9)] | 0.48 × 10^4 M^−1 |
| CC(Sc1nnnn1-c1ccc(O)cc1)C(=O)c1ccc(F)c(F)c1 (stereo not shown) [(13)] | 0.17 × 10^4 M^−1 |
| O=C1Sc2c(S(=O)(=O)Nc3ccc(O)cc3)cc(S(=O)(=O)Nc3ccc(O)cc3)c3cccc1c23 [(11)] | 0.37 × 10^4 M^−1 |
| Cc1ccc(OCc2nc(CSc3nc(N)cc(N)n3)cs2)cc1 [(16)] | 0.06 × 10^4 M^−1 |
| CN(c1ccc(O)cc1)c1ncc([N+](=O)[O-])c(N(C)c2ccc(O)cc2)n1 [(7)] | 0.96 × 10^4 M^−1 |
